Assay [1] addresses T1, ADAM10 (Homo sapiens, UniProt O14672).
T1 construct: Reaction Biology Corporation (contract testing)
The assay is described as follows: Protease panel: ADAM10. The class given is biochemical. To be noted: supplement panel table, test and control compound.

The target in assay [2] is MMP 3 (Homo sapiens, UniProt P08254). The experiment in a line: Protease panel: MMP 3. The class given is biochemical. The note with it: supplement panel table, test and control compound. On the procedure: (§1) Protease panel testing was carried out by Reaction Biology Corporation.
Assay [3] addresses MMP 7 (Homo sapiens, UniProt P09237). The experiment in a line: Protease panel: MMP 7. The class given is biochemical. The note with it: supplement panel table, test and control compound. On the procedure:
as §1

Assay [4] concerns the target T2, MMP 12 (Homo sapiens, UniProt P39900).
T2 construct: Reaction Biology Corporation (contract testing)
The assay is described as follows: Protease panel: MMP 12. The class given is biochemical. To be noted: supplement panel table, test and control compound. The protocol: as §1

In assay [5] the target is MMP 14 (Homo sapiens, UniProt P50281). The assay is described as follows: Protease panel: MMP 14. The class given is biochemical. To be noted: supplement panel table, test and control compound. The protocol:
as §1

The target of assay [6] is MMP 13 (Homo sapiens, UniProt P45452). The assay is described as follows: biochemical.
Assay [7] addresses TACE (Homo sapiens, UniProt P78536). The assay is described as follows: biochemical.
The test system of assay [8] is M. smegmatis ΔprcAB. The class given is cell-based. The note with it: 24 h exposure, OD600; concentration inhibiting 50% of growth.
The target of assay [9] is ClpP1P2 (Mycolicibacterium smegmatis, UniProt A0R197+A0R198). The assay is described as follows: ClpP1P2 inhibition whole-cell RFP-SsrA reporter assay. To be noted: 3 h incubation. (Reporter assays use an easily measured gene product as a stand-in for the process of interest.)
For assay [10], the target named is HepG2 proteasome (Homo sapiens, UniProt P20618+P28074). The experiment in a line: Cell-based proteasome CT-like peptidase inhibition assay (Proteasome-Glo).
Experimental: A cell-based CT-like peptidase assay was performed using the Proteasome-Glo cell-based assay reagent (Promega) according to the manufacturer's guidelines. Briefly, HepG2 cells (10^4 cells/well) were treated with the compounds indicated in the figures for 2 h, followed by incubation with the luminescent substrate for 10 min. Luminescence was detected with a Tecan M200 Pro plate reader.
For assay [11], the system named is M. tuberculosis H37Rv. The experiment in a line: microbe, parasite or virus in culture. The class given is cell-based.
[12] abbreviates: M. smegmatis ΔprcAB IC50 (μM) for ClpP1P2, whole-cell RFP-SsrA reporter.
[13] abbreviates: read-out: M. smegmatis ΔprcAB IC50 (μM) for ClpP1P2, whole-cell RFP-SsrA reporter.
The mark [14] stands for this setting: read-out: IC50 (μM) for HepG2 proteasome, HepG2 cells, 2 h treatment, chymotrypsin-like site.

In brackets after ≈: the same amount, converted by molar mass. Read-outs that look alike come from different tables or passages of the source.

These results are taken from article PMC5404560, “Towards Selective Mycobacterial ClpP1P2 Inhibitors with Reduced Activity against the Human Proteasome” (Antimicrobial Agents and Chemotherapy, 2017).

What is called IC50 is the midpoint of a concentration-inhibition curve.

ClpP1P2, sequence (A0R198 4-203): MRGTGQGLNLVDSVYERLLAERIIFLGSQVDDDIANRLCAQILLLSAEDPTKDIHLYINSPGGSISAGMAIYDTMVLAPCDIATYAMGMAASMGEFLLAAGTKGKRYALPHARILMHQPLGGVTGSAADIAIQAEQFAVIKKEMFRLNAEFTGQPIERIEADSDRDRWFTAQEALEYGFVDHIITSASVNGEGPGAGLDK
ClpP1P2, sequence (A0R197 17-218): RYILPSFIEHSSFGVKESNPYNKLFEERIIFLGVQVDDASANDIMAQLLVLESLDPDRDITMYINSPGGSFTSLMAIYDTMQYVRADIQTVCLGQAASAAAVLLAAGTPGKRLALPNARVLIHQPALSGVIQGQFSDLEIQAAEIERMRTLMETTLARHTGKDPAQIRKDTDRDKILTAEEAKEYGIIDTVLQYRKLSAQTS
MMP 3, sequence (P08254 100-477, species assumed): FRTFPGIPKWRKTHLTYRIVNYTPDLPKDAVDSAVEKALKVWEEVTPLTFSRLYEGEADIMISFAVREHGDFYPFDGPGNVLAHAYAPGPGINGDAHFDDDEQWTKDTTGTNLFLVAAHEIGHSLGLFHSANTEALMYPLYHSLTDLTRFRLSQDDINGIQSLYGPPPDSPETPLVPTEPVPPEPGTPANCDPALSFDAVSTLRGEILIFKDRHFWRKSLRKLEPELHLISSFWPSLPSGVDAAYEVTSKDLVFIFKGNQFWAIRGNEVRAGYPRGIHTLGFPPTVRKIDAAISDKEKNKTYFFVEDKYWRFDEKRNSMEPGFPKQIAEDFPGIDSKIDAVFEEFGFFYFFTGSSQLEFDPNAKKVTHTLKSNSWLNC
T2 sequence (P39900 106-470, species assumed): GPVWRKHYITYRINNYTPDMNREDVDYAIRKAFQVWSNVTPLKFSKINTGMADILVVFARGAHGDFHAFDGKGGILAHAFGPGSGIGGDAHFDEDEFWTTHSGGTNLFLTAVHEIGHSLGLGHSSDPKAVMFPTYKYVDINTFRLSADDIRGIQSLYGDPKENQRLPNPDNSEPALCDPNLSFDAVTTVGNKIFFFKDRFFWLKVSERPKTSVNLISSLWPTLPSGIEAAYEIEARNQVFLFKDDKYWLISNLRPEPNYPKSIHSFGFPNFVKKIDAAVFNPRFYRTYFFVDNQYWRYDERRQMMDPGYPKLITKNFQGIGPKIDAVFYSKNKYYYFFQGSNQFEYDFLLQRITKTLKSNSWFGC
MMP 7, sequence (P09237 95-267, species assumed): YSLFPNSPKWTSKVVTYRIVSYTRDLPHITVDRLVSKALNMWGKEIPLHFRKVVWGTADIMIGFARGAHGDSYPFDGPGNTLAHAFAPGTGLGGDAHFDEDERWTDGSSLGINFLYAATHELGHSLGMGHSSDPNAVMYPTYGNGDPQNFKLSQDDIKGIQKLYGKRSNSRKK
TACE, sequence (P78536 215-824): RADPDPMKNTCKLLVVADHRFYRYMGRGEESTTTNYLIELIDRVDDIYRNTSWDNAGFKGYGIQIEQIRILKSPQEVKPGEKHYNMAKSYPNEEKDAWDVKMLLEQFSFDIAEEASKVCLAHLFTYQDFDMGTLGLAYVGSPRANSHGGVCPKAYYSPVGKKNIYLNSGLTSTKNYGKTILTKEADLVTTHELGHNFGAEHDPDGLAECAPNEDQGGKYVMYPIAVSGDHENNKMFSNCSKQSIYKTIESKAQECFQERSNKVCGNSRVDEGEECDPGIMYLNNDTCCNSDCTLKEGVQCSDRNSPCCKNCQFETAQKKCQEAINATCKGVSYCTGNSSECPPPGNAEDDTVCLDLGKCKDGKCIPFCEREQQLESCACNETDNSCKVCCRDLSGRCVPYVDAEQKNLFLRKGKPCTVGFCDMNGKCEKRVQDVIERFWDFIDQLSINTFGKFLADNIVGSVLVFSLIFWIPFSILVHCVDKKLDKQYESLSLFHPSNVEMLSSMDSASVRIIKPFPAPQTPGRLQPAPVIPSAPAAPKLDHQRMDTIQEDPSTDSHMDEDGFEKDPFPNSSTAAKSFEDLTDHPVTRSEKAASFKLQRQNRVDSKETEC
T1 sequence (O14672 214-748, species assumed): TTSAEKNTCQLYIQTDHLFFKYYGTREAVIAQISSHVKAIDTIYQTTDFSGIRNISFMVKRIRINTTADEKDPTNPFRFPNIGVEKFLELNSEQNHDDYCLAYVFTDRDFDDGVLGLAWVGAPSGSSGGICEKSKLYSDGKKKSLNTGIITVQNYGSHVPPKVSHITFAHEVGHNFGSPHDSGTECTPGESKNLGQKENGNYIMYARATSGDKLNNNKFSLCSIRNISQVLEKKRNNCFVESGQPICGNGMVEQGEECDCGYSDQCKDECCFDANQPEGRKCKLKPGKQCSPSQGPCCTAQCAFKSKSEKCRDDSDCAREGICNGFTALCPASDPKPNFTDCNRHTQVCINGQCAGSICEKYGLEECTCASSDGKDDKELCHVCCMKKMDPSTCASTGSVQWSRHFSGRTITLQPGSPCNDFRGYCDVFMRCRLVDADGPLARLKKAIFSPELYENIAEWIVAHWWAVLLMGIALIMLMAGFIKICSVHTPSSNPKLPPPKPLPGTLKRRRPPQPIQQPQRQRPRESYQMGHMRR

With `CNC(=O)[C@H](Cc1c[nH]c2ccccc12)NC(=O)[C@@H](CC(=O)NO)CC(C)C` [GM6001], the 50% inhibitory concentration (IC50) was determined as 0.0811 µM in [1]; 0.0163 µM in assay [2]; 0.00438 µM in assay [3]; 0.00117 µM in assay [4]; 0.00124 µM in assay [5]; 0.535 nM in [6]. The molecule also gave a concentration for half-maximal inhibition (IC50) in [7] of 9.1 nM.
With `CC(C)(C(=O)N[C@@H](Cc1ccccc1)C(=O)N[C@@H](CCc1ccccc1)B(O)O)n1cccc1` [Compound 54, ((R)-1-((S)-2-(2-methyl-2-(1H-pyrrol-1-yl)propanamido)-3-phenylpropanamido)-3-phenylpropyl)boronic acid], the “M. smegmatis ΔprcAB MIC50” value in [8] amounted to 30 ± 0 µM. In addition, the IC50 amounted to 25 µM in [9] (setting [12]) and 0.5 µM in [10].
Regarding `CC(C)(C(=O)N[C@@H](Cc1ccccc1)C(=O)N[C@@H](CCC1CCCCC1)B(O)O)n1cccc1` [Compound 50, ((R)-3-cyclohexyl-1-((S)-2-(2-methyl-2-(1H-pyrrol-1-yl)propanamido)-3-phenylpropanamido)propyl)boronic acid], the “M. smegmatis ΔprcAB MIC50” value in assay [8] is 150 ± 0 µM. Further, the IC50 was 200 µM in [9] (setting [12]) and > 0.5 µM in [10].
With `CC(C)C[C@H](NC(=O)[C@H](Cc1ccccc1)NC(=O)c1ccccn1)B(O)O` [Compound 37, ((R)-3-methyl-1-((S)-3-phenyl-2-(picolinamido)propanamido)butyl)boronic acid], the “M. smegmatis ΔprcAB MIC50” value in assay [8] came out at 15 ± 0 µM. Besides, the values for the concentration for half-maximal inhibition (IC50) in assay [9] (setting [12]) and in assay [10] were 17 ± 5.7 µM and 0.006 ± 0.001 µM, respectively.
For the molecule `O=C(N[C@@H](Cc1ccccc1)C(=O)N[C@@H](CCc1ccccc1)B(O)O)c1ccc(C(F)(F)F)cc1` [Compound 52, ((R)-3-phenyl-1-((S)-3-phenyl-2-(4-(trifluoromethyl)benzamido)propanamido)propyl)boronic acid], the “M. smegmatis ΔprcAB MIC50” value in assay [8] stood at 11 ± 1 µM. Further, the concentration for half-maximal inhibition (IC50) in assay [9] (setting [12]) amounted to 12 µM; in assay [10] it was 0.1 µM.
For the molecule `O=C(N[C@@H](Cc1ccccc1)C(=O)N[C@@H](CCC1CCCCC1)B(O)O)c1cccc2ncsc12` [Compound 47, ((R)-1-((S)-2-(benzo[d]thiazole-7-carboxamido)-3-phenylpropanamido)-3-cyclohexylpropyl)boronic acid], the “M. smegmatis ΔprcAB MIC50” value in [8] was >200 µM. The concentration for half-maximal inhibition (IC50) in [9] (setting [12]) is > 200 µM; in assay [10] it was 0.288 ± 0.088 µM.
On to “((R)-1-((S)-2-(indolizine-3-carboxamido)-3-phenylpropanamido)-3-methylbutyl)boronic acid [Compound 41]”, for which the “M. smegmatis ΔprcAB MIC50” value in assay [8] worked out at 15 ± 0 µM. In addition, the half-maximal inhibitory concentration (IC50) in assay [9] (setting [13]) stood at 11.3 ± 0.9 µM; in assay [10] (setting [14]) it was 0.006 ± 0.001 µM.
For `O=C(N[C@@H](Cc1ccc(O)cc1)C(=O)N[C@@H](CCc1ccccc1)B(O)O)c1cnccn1` [Compound 57], in assay [8], the “M. smegmatis ΔprcAB MIC50” value was 8 ± 2.8 µM. For the same molecule, in assay [11], the “improvement of M. tuberculosis MIC50 over compound 1” value stood at 5 fold. For the same molecule, in [11] (5 days), the “MIC50 (μM) against M. tuberculosis H37Rv” value was 0.8 ± 0 µM (≈ 0.359 µg/mL). The MIC50 in assay [11] (Mycobacterium tuberculosis, H37RV, 120 h, 5 days, read-out: MIC50 (μM) against M. tuberculosis H37Rv) turned out to be 0.8 µM (≈ 0.359 µg/mL). In addition, the MIC90 in [11] (Mycobacterium tuberculosis, H37RV, 120 h, 5 days, read-out: MIC90 (μM) against M. tuberculosis H37Rv) is 3 µM (≈ 1.34 µg/mL). Besides, the IC50 in assay [9] (setting [12]) came to 7.5 ± 4.5 µM; in assay [10], 0.533 ± 0.103 µM.
For the molecule “((R)-1-((S)-2-(indolizine-2-carboxamido)-3-phenylpropanamido)-3-methylbutyl)boronic acid [Compound 40]”, in assay [8], the “M. smegmatis ΔprcAB MIC50” value was 8.3 ± 4.5 µM. The figures for the half-maximal inhibitory concentration (IC50) in assay [9] (setting [13]) and in [10] (setting [14]) were 9 ± 3 µM and 0.023 ± 0.008 µM, respectively.
In the case of `CC(C)C[C@H](NC(=O)[C@H](Cc1ccccc1)NC(=O)c1ccccc1)B(O)O` [Compound 35, ((R)-1-((S)-2-benzamido-3-phenylpropanamido)-3-methylbutyl)boronic acid], in [8], the “M. smegmatis ΔprcAB MIC50” value was 3.5 ± 0.5 µM. Further, the IC50 in assay [9] (setting [12]) is 3.3 ± 0.5 µM; in assay [10], 0.006 ± 0.001 µM.
